Experimental data reported in the NIST ThermoML archive (doi:10.1021/je050333h).
± gives the expanded uncertainty stated by the source.

Key:
[1] = cn = amount concentration of the nth substance listed, in mol/dm3; conditions: 101 kPa, Liquid, c2 = 0; for speed of sound: Sing-around technique in a fixed-path interferometer
[2] = 101 kPa, Liquid; for speed of sound: Sing-around technique in a fixed-path interferometer

Which speed of sound ([1]; 293.15 K) does the source give for `CC(C)CC(C)(C)C` [2,2,4-trimethylpentane] + CCCCC(CC)COC(=O)CC(C(=O)OCC(CC)CCCC)S(=O)(=O)[O-].[Na+] here?
The speed of sound was 1103.2 ± 1.3 m/s.

And the kinematic viscosity ([1]; 293.15 K)?
Its kinematic viscosity is 7.33e-07 ± 1.3e-08 m2/s.

And the mass density ([1]; 293.15 K)?
Its mass density is 690.6 ± 6.3 kg/m3.

What about the speed of sound ([1]; 298.15 K) of the same compound?
Its speed of sound is 1082.2 ± 1.3 m/s.

And the kinematic viscosity ([1]; 298.15 K)?
The kinematic viscosity was 6.97e-07 ± 1.2e-08 m2/s.

What about the mass density ([1]; 298.15 K) of the same compound?
Its mass density is 686.3 ± 6.4 kg/m3.

What about the speed of sound ([1]; 303.15 K) of the same compound?
Its speed of sound is 1061.3 ± 1.3 m/s.

And the kinematic viscosity ([1]; 303.15 K)?
The kinematic viscosity was 6.63e-07 ± 1.2e-08 m2/s.

What about the mass density ([1]; 303.15 K) of the same compound?
The mass density was 680.84 ± 6.5 kg/m3.

And the speed of sound ([1]; 313.15 K)?
Its speed of sound is 1020.1 ± 1.3 m/s.

What about the kinematic viscosity ([1]; 313.15 K) of the same compound?
Its kinematic viscosity is 6.02e-07 ± 1.1e-08 m2/s.

What about the mass density ([1]; 313.15 K) of the same compound?
The mass density was 673.37 ± 6.6 kg/m3.

What about the speed of sound ([1]; 323.15 K) of the same compound?
The speed of sound was 979.5 ± 1.3 m/s.

And the kinematic viscosity ([1]; 323.15 K)?
Its kinematic viscosity is 5.49e-07 ± 1e-08 m2/s.

What about the mass density ([1]; 323.15 K) of the same compound?
Its mass density is 664.65 ± 6.7 kg/m3.

With `CC(C)CC(C)(C)C` [2,2,4-trimethylpentane] as the compound, how does the kinematic viscosity ([2]; 293.15 K) read?
Its kinematic viscosity is 7.33e-07 ± 1.3e-08 m2/s.

And the mass density ([2]; 293.15 K)?
Its mass density is 690.6 ± 6.3 kg/m3.

What about the speed of sound ([2]; 293.15 K) of the same compound?
Its speed of sound is 1103.2 ± 1.3 m/s.

What about the kinematic viscosity ([2]; 298.15 K) of the same compound?
The kinematic viscosity was 6.97e-07 ± 1.2e-08 m2/s.

What about the mass density ([2]; 298.15 K) of the same compound?
Its mass density is 686.3 ± 6.4 kg/m3.

And the speed of sound ([2]; 298.15 K)?
The speed of sound was 1082.2 ± 1.3 m/s.

What about the kinematic viscosity ([2]; 303.15 K) of the same compound?
The kinematic viscosity was 6.63e-07 ± 1.2e-08 m2/s.

And the mass density ([2]; 303.15 K)?
Its mass density is 680.84 ± 6.5 kg/m3.

And the speed of sound ([2]; 303.15 K)?
Its speed of sound is 1061.3 ± 1.3 m/s.

And the kinematic viscosity ([2]; 313.15 K)?
Its kinematic viscosity is 6.02e-07 ± 1.1e-08 m2/s.

What about the mass density ([2]; 313.15 K) of the same compound?
The mass density was 673.37 ± 6.6 kg/m3.

And the speed of sound ([2]; 313.15 K)?
Its speed of sound is 1020.1 ± 1.3 m/s.

What about the kinematic viscosity ([2]; 323.15 K) of the same compound?
Its kinematic viscosity is 5.49e-07 ± 1e-08 m2/s.

What about the mass density ([2]; 323.15 K) of the same compound?
The mass density was 664.65 ± 6.7 kg/m3.

And the speed of sound ([2]; 323.15 K)?
The speed of sound was 979.5 ± 1.3 m/s.
